Measured values reported in PubChem BioAssay AID1508610 (The Scripps Research Institute Molecular Screening Center, 2020).
Calls of active or inactive are those of the source. The rule behind the calls is not given here.

Molecular target: G-protein coupled receptor 151 (Homo sapiens) (UniProt Q8TDV0)
Experiment: GPR151 activator potency, dose response, cell-based (AID 1508610)
Conditions: cell-based GPR151 activation reporter

Chain of G-protein coupled receptor 151 (Homo sapiens) (Q8TDV0 whole entry, looked up): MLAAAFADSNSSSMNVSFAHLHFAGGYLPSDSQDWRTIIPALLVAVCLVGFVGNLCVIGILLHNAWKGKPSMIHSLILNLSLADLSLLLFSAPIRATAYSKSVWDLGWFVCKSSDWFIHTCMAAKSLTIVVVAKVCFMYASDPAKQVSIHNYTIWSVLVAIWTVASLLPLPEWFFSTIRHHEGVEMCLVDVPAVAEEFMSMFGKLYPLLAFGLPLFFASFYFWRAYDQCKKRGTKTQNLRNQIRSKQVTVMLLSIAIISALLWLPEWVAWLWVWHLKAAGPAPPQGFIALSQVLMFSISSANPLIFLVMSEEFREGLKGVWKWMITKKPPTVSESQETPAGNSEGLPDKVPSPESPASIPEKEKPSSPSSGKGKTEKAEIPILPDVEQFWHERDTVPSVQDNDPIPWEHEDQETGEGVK

Compound	EC50
C=CCOC(=O)C1=C(C)N2CCSC2=C(C#N)C1c1ccco1 (stereo not drawn)	> 32 µM (inactive)
Cc1cc2nc(-c3cccnc3Cl)[nH]c2cc1C	> 26.1 µM (inactive)
CCOC(=O)COc1ccc(/C=C2\C=C(c3ccc(Br)cc3)OC2=O)cc1OC	> 23.6 µM (inactive)
O=C1CC(C(=O)N2CCCC(c3[nH]ncc3-c3ccccc3)C2)c2ccccc21 (stereo not drawn)	> 28 µM (inactive)
COc1ccc(C(=O)N(C)Cc2ccccc2)cc1I	> 28 µM (inactive)
COc1ccc(-c2ccc(/C=N/N3C(=O)C4C5C=CC(C6CC56)C4C3=O)o2)c([N+](=O)[O-])c1 (stereo not drawn)	> 28 µM (inactive)
COc1ccc(/C=C/C(=O)Nc2ccccc2F)cc1	> 30.5 µM (inactive)
C#CCN1CCc2cc(OC)c(OC)cc2C1C (stereo not drawn)	> 28 µM (inactive)
CCOC(=O)c1ccccc1NC(=O)CN(c1ccc(Cl)c(Cl)c1)S(C)(=O)=O	> 28 µM (inactive)
COc1ccc(-c2nc(Nc3ccc(C)c(Cl)c3)c3ccccc3n2)cc1OC	> 26.1 µM (inactive)
CC[n+]1cc(C)ccc1/C=C/c1ccc(N(C)C)cc1	> 29.7 µM (inactive)
c1ccc(-c2ccc(-c3nc(-c4ccccn4)no3)cc2)cc1	> 24.8 µM (inactive)
CCCCCCCCCCCCCCCC(=O)SCCOP(=O)(O)OCC[N+](C)(C)C	> 11.2 µM (inactive)
CN(C)CCN(C)C(=O)c1cccc(OC2CCN(C3CCSCC3)CC2)c1	> 28 µM (inactive)
COc1ccc(CNC(=O)CCCn2cccc2)cc1	> 28 µM (inactive)
NC(=O)c1ccsc1NC(=O)/C=C/c1ccccc1	> 26.7 µM (inactive)
Cc1c(C(=O)NCc2ccco2)oc2ccc(S(=O)(=O)N(C)C3CCCCC3)cc12	> 28 µM (inactive)
Fc1ccc2nc(N3CCN(c4nc5ccccc5s4)CC3)sc2c1	> 28 µM (inactive)
C=CCN1C(=O)CC(C(=O)OC)C12CCN(C1CCN(C(=O)OCC)CC1)CC2 (stereo not drawn)	> 28 µM (inactive)

Compound	EC50
Cc1ccc(-c2nc3ccccc3[nH]2)cc1	> 35.1 µM (inactive)
CCOc1ccc(-c2n[nH]c(=S)n2-c2ccccc2)cc1	inactive
CCOC(=O)c1cnc2c(OC)cccc2c1NC1CCCCC1	inactive
O=C(/C=C/c1ccc(O)cc1)c1ccc(O)cc1O	> 28 µM (inactive)
COc1ccc(C(=O)Nc2cc(C(=O)NCc3ccc(F)cc3)ccc2N2CC3CC(C2)c2cccc(=O)n2C3)cc1 (stereo not drawn)	> 16.9 µM (inactive)
CCC(C)NC(=O)C1=C(C)C(=O)OC12CCCCC2 (stereo not drawn)	> 28 µM (inactive)
CCOc1cc(/C=c2/sc3n(c2=O)CCN=3)ccc1O	> 40 µM (inactive)
CSc1nc2ccc(NC(=O)Cn3cnc4ccccc4c3=O)cc2s1	> 29.3 µM (inactive)
O=C1[C@H]2[C@H]3[C@H](O)[C@H](O)C/C(=N\OCc4ccccc4)[C@H]3CC[C@H]2C(=O)N1C1CCCCC1	inactive
O=C(Nc1cc(Cl)ccc1Cl)c1ccccc1O	> 34 µM (inactive)
COc1cccc(NC(=O)c2cc(C3CC3)[nH]n2)c1	> 28 µM (inactive)
O=C1/C(=C\c2ccncc2)SC(=S)N1Cc1ccccc1	inactive
Cc1ccnc(SCc2cc(=O)c(OC(=O)c3cc(Cl)ccc3[N+](=O)[O-])co2)n1	> 28.4 µM (inactive)
CCOC(=O)c1cc(S(=O)(=O)N2CCN(c3ccccc3F)CC2)cn1C	> 28 µM (inactive)
CC(=O)c1c(C)[nH]c(C(=O)N2CCN(c3ccccc3)CC2)c1C	> 28 µM (inactive)
CC1(C)Cc2c(C#N)c(N3CCCC3)nc(-c3ccco3)c2CO1	> 28 µM (inactive)
O=C(Cn1c2c(c(-c3ccccc3Cl)cc1=O)CCC2)NC1CCCC1	> 28 µM (inactive)
COC(C(=O)NCC1CCC2(CCN(Cc3ccccc3)CC2)O1)c1ccccc1 (stereo not drawn)	> 28 µM (inactive)
Cc1ccc(C(=O)Nc2ccc([N+](=O)[O-])cc2)c(Cl)c1	> 28 µM (inactive)

Compound	EC50
Cc1cc2nc(-c3ccc[nH]c3=O)[nH]c2cc1C	> 28.1 µM (inactive)
O=C(O)CC1c2ccccc2CCN1S(=O)(=O)c1ccc(Cl)cc1 (stereo not drawn)	inactive
CCCCCCCC(=O)N/N=C/c1ccccc1OC	> 28 µM (inactive)
CCOC(=O)c1c(NC(=O)CN2CC(C)OC(C)C2)sc(C)c1C (stereo not drawn)	> 31.3 µM (inactive)
O=C(Nc1noc2ccccc12)c1ccc(F)cc1	> 28 µM (inactive)
COc1ccc(-c2ccc(C(=O)NCCO)s2)cn1	> 27.9 µM (inactive)
CCN(CC(=O)NC1CCCCCC1)S(=O)(=O)c1ccc(C)cc1	> 28 µM (inactive)
CCOC(=O)C1CCC(CN(CC(C)C)S(=O)(=O)c2ccc([N+](=O)[O-])cc2)CC1 (stereo not drawn)	> 23.7 µM (inactive)
Clc1ccc(-c2nc(-c3ccccn3)no2)c(Cl)c1	> 29.7 µM (inactive)
COc1ccc(/C=N/NC(=O)COc2cccc(C)c2)cc1O	> 28 µM (inactive)
CCC(=O)N1CCN(c2ccc(NC(=O)c3ccco3)cc2)CC1	> 28 µM (inactive)
CCOC(=O)c1cnc2c(OC)cccc2c1NC1CCCCCC1	inactive
CC(C)(C)OC(=O)NNC(=O)/C=C/c1cc(Br)ccc1F	> 28.1 µM (inactive)
CCOC(=O)C(=O)N1CCN(c2ccccc2)CC1	> 28 µM (inactive)
COc1ncc(-c2cncc(-c3cccc(O)c3)n2)c(OC)n1	> 28 µM (inactive)
C=CCN1C(=O)/C(=C/c2ccc(OCC(=O)O)cc2)S/C1=N/c1nccs1	> 28 µM (inactive)
CC(C)(C)NS(=O)(=O)c1ccc(NC(=O)COc2ccc(Br)cc2)cc1	> 28 µM (inactive)
COc1cccc(/C=C(\C#N)c2nc3ccc(C)cc3[nH]2)c1OC	> 33.2 µM (inactive)

Next, values leading:

EC50	Compound
> 28.9 µM (inactive)	O=C(Nc1nc2ccccc2[nH]1)c1ccccc1Cl
0.97 µM	CC(C)CC(NC(=O)C(C)NC(=O)CNC(=O)C(NC=O)C(C)C)C(=O)NC(C)C(=O)NC(C(=O)NC(C(=O)NC(C(=O)NC(Cc1c[nH]c2ccccc12)C(=O)NC(CC(C)C)C(=O)NC(Cc1c[nH]c2ccccc12)C(=O)NC(CC(C)C)C(=O)NC(Cc1c[nH]c2ccccc12)C(=O)NC(CC(C)C)C(=O)NC(Cc1c[nH]c2ccccc12)C(=O)NCCO)C(C)C)C(C)C)C(C)C (stereo not drawn)
> 28.8 µM (inactive)	CC(=O)c1ccc(NC(=O)COC(=O)c2ccc3c(c2)nc(C)n3-c2ccccc2)cc1
> 25.1 µM (inactive)	O=C(NCc1ccc(Cl)cc1)C1C2C=CC3(CN(Cc4ccccc4)C(=O)C13)O2 (stereo not drawn)
> 28 µM (inactive)	Cc1cnc(C)c(NC2CCCCNC2=O)n1 (stereo not drawn)
> 31.6 µM (inactive)	O=C(c1ccc(CNS(=O)(=O)c2ccc(Cl)cc2)cc1)N1CCCC1
> 28 µM (inactive)	COC(=O)C(NC(=O)c1ccc(Br)cc1)c1ccccc1 (stereo not drawn)
> 28 µM (inactive)	Cc1cccc(-c2cnc(C)nc2C2CCCN(C(=O)CN(C)C)C2)c1 (stereo not drawn)
> 28 µM (inactive)	COc1ccc(S(=O)(=O)Nc2ccc(F)c(F)c2)cc1C
> 27.9 µM (inactive)	COc1ccc(-c2ccc(C(=O)NCCO)s2)cc1
> 30.4 µM (inactive)	COCCn1c(C)cc(C(=O)COC(=O)c2cccc(O)c2)c1C
> 28 µM (inactive)	O=C(O)c1ccc(OCc2ccnc(Cl)c2)cc1
> 28.1 µM (inactive)	O=C(CSc1nc(NC2CCCCC2)c2ccccc2n1)c1ccc(F)cc1
> 28.6 µM (inactive)	Cc1ccc(C(=O)CSc2[nH]c(=O)ncc2C)cc1
> 27.9 µM (inactive)	COc1ccc(-c2ccc(C(=O)Nc3ccccc3)s2)cc1
> 28 µM (inactive)	NN1C(=O)c2ccccc2NC1C1CC=CCC1 (stereo not drawn)
inactive	COc1ccc(C2C=C(c3ccc(Cl)cc3)Nc3nc(CCCO)nn32)cc1 (stereo not drawn)
> 28 µM (inactive)	CCN(CC)C(=O)C(=O)c1c(C)n(C)c2ccccc12
> 28 µM (inactive)	COc1ccc(N2CCN(C3CC(=O)NC3=O)CC2)cc1 (stereo not drawn)
> 25.9 µM (inactive)	NC(=O)c1ccc(-c2ccc(N3CCOCC3)nc2)s1
> 35.5 µM (inactive)	CSc1nc(-c2ccccc2)cn1-c1ccc(F)cc1

EC50	Compound
> 28 µM (inactive)	O=C1NC(c2ccc(Cl)cc2Cl)Oc2ccccc21 (stereo not drawn)
> 28 µM (inactive)	Cc1ccc2c(c1)CN(CCC(=O)NCCCn1nnc3ccccc31)CC(C)O2 (stereo not drawn)
> 28 µM (inactive)	Cc1nc(NC(=O)CSc2ccc(-c3nc4ccccc4[nH]3)cn2)sc1C
> 28 µM (inactive)	Cc1cn2c(=O)c(C(=O)NOCc3cccc(C(F)(F)F)c3)cnc2s1
> 28 µM (inactive)	CCOC(=O)N1CCc2nc(NC(=O)c3ccnn3CC)sc2C1
> 28 µM (inactive)	Cn1c(=O)oc2cc(S(=O)(=O)N3CCCC(C(=O)N4CCOCC4)C3)ccc21 (stereo not drawn)
> 27.6 µM (inactive)	O=C(NC1CC1)c1ccc(-c2ccc(N3CCOCC3)nc2)s1
1.17 µM	COc1ccc(CCNc2cc(C)nc(Nc3ccc(-n4ccnc4)cc3)n2)cc1
> 27.4 µM (inactive)	COc1cccc(-c2ccc(SCC(=O)Nc3cccc(NC(C)=O)c3)nn2)c1
> 28.4 µM (inactive)	N#Cc1ccc(NC(=O)COC(=O)CCC(=O)c2ccc3c(c2)OCCO3)cc1
> 27.7 µM (inactive)	Cc1sc(NC(=O)c2ccco2)c(CN2CCN(CCO)CC2)c1C
> 28 µM (inactive)	CC(C)CCN1C(=O)C(C)(C)COc2cc(NC(=O)c3ccc4c(c3)OCO4)ccc21
> 24.6 µM (inactive)	Cc1cccc2c(C(=O)NCc3ccccc3)cc(-c3ccccc3)nc12
> 28 µM (inactive)	COc1cccn2c(C(=O)Nc3ccc(Cl)cc3)c(C(F)(F)F)nc12
> 24.2 µM (inactive)	CCOC(=O)c1ccc(NC(=O)CSc2cn(Cc3ccccc3Cl)c3ccccc23)cc1
> 26.6 µM (inactive)	CCOc1ccc(S(=O)(=O)N(CC(=O)NCCSc2ccccc2)c2ccccc2)cc1
> 28 µM (inactive)	Cc1ccc(NC(=O)/C(C#N)=C\c2ccccc2O)cc1C
> 26.2 µM (inactive)	COc1ccccc1C(=O)Nc1nc2ccccc2s1
> 28 µM (inactive)	COc1ccc(-c2ccc(C(=O)Nc3ccccc3)s2)cn1
> 17.2 µM (inactive)	O=C(Nc1ccc(Oc2cc3ccccc3cc2Cl)c(Cl)c1)c1cc(Br)cc(Br)c1O
> 28 µM (inactive)	COc1ccc(S(=O)(=O)N(C)C)c(Cl)c1Cl
